These are literature values, as cited in patent US20050263150A1, “Systems and methods for the administration of drugs and medications” (priority 2004, published 2005).

Read-outs that look alike come from different tables or passages of the source.

The conditions of data set [1]: ketamine combined with benzodiazepines and barbiturates, extends ketamine's half-life.
For data set [2] the following is noted: for duration of action: in vivo.

Regarding `CNC1(c2ccccc2Cl)CCCCC1=O` (stereo not drawn) [Ketamine, 2-(2-chlorophenyl)-2-(methylamino)-cyclohexanone], the “prolonging clinical recovery time” value in data set [1] was “about 30%”. Turning to `C=CCC1(C(C)C#CCC)C(=O)N=C(O)N(C)C1=O` (stereo not drawn) [Methohexital], in data set [2], the duration of action entry is given as “less than 10 minutes”. For the same compound, the onset of action result in data set [2] (procedural sedation) is reported as “less than 1 minute”. On to `[N-]=[N+]=O` [Nitrous oxide], for which the duration of action in data set [2] was 3 to 5 min. Besides, the onset of action in data set [2] (sedative/analgesic) is 3 to 5 min.

Consider `CC(C)c1cccc(C(C)C)c1O` [Propofol], for which the solubility in water entry is given as “almost completely insoluble in water”.
